# Measurements published in patent US10604487B2, “Pyridinol derivative or pharmaceutically acceptable salt thereof, and pharmaceutical composition containing same as active ingredient” (Research Cooperation Foundation of Yeungnam University, priority 2016, dated 2020).
# Assays:
# [1] = Cytotoxicity test (MTT), U937; format: cell-based; details: human, U937, 48 h
# How it was run: (§1)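 Cells seeded at 1×10⁵ cells/cm² and exposed to graded compound concentrations for 48 h at 37 °C in RPMI 1640 with 1% FBS. MTT (5 mg/mL) added for 4 h; formazan dissolved in DMSO and absorbance read at 540 nm.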
# [2] = test system: TNF-α-induced adhesion of monocytes to intestinal epithelial cells; test: Inhibitory activity against TNF-α-induced adhesion of monocytes (U937) to intestinal epithelial cells (HT-29); format: cell-based, human; details: Homo sapiens
# How it was run: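 HT-29 monolayers pretreated 1 h with compound in 1% FBS medium, then exposed 3 h at 37 °C to BCECF-loaded U937 cells plus 10 ng/mL TNF-α. Non-adherent cells washed off; bound cells quantified by fluorescence after Triton X-100 lysis.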
# [3] = Cytotoxicity test (MTT), HT-29; format: cell-based; details: human, HT-29, 48 h
# How it was run: as §1
# TNBS-induced colitis = test: In vivo efficacy of oral administration in TNBS-induced inflammatory bowel disease model; design: species or system Sprague Dawley rats; details: rat, oral, 1 mg/kg, 5 days
# Description: 7 to 8-week-old Sprague Dawley rats were purchased from Orient Bio Korea, and after stabilization with typical solid feed for 3 days, were used as animals for the experiment. The animals were freely supplied with feed and water during the experiment, and a cage was maintained at a temperature of 25±1° C. and a relative humidity of 50±10%. Lighting was adjusted to a 12-hour light-dark cycle using an automatic lightening system. In regard to experimental groups, there were 5 groups each consisting of 6 rats having an average weight of 180±10 g (a control group, a group administered TNBS only, a group administered TNBS+300 mg/kg of sulfasalazine, a group administered TNBS+10 mg/kg of GLPG, and a group administered TNBS+1 mg/kg of test drug), which were divided according to a randomized block design.
# After rats that had been fasting for 24 hours were anesthetized with diethyl ether, a 1 mL syringe connected with a polyethylene catheter was used to slowly inject 0.8 mL of 5% TNBS diluted with 50v/v % ethanol into the lumen of a colon, and then the rats turned upside down and kept upright for 60 seconds to prevent the leakage of 5% TNBS from the anus. In the control group, only a vehicle [50 v/v % ethanol] was injected in the same manner as in the other groups (Thapa et al., 2008).
# To examine a drug effect, for 5 days from the day following the TNBS treatment, a drug was administered at a predetermined time every day.
# A change in the body weights of the rats was observed using a digital mass meter from the fasting stage to the end of the TNBS administration and drug administration processes.
# The colon of each rat was extracted and tissue 5 to 6 cm from the anus was cut into 1-cm pieces, and then the weight of the tissue was measured.
structure (smiles),measurement,setting,value
"Cc1nc(NS(=O)(=O)c2ccc(C(F)(F)F)cc2)c(C)c(C)c1O [Compound 22-3, N-(5-hydroxy-3,4,6-trimethylpyridin-2-yl)-4-(trifluoromethyl)benzenesulfonamide]","viability at 48 h, 0.01 µM","[1]; U937 cells (monocytic blood cancer-derived cell line), 0.01 μM, read-out: Cell viability (% of control)",96.9 ± 1.5%
same,"viability at 48 h, 0.1 µM","[1]; U937 cells (monocytic blood cancer-derived cell line), 0.1 μM, read-out: Cell viability (% of control)",93 ± 1.5%
same,"viability at 48 h, 1 µM","[1]; U937 cells (monocytic blood cancer-derived cell line), 1 μM, read-out: Cell viability (% of control)",87.5 ± 2.2%
same,"viability at 48 h, 10 µM","[1]; U937 cells (monocytic blood cancer-derived cell line), 10 μM, read-out: Cell viability (% of control)",75.5 ± 1.9%
same,"viability at 48 h, 100 µM","[1]; U937 cells (monocytic blood cancer-derived cell line), 100 μM, read-out: Cell viability (% of control)",53.3 ± 1.5%
same,IC50 at 48 h,[1]; U937 cells,> 100 µM
same,inhibition at 1 µM,"[2]; 1 μM, Table 8, read-out: 1 μM concentration inhibitory activity",87.3%
same,IC50,"[2]; HT-29/U937 adhesion, TNF-α-induced, read-out: IC50 (adhesion inhibition)",0.32 µM
same,"viability at 48 h, 0.01 µM","[3]; HT-29 cells (colorectal cancer cell line), 0.01 μM, read-out: Cell viability (% of control)",92.5 ± 1.5%
same,"viability at 48 h, 0.1 µM","[3]; HT-29 cells (colorectal cancer cell line), 0.1 μM, read-out: Cell viability (% of control)",95 ± 0.9%
same,"viability at 48 h, 1 µM","[3]; HT-29 cells (colorectal cancer cell line), 1 μM, read-out: Cell viability (% of control)",89.3 ± 4.7%
same,"viability at 48 h, 10 µM","[3]; HT-29 cells (colorectal cancer cell line), 10 μM, read-out: Cell viability (% of control)",91.8 ± 1.8%
same,"viability at 48 h, 100 µM","[3]; HT-29 cells (colorectal cancer cell line), 100 μM, read-out: Cell viability (% of control)",72.6 ± 3.2%
same,IC50 at 48 h,"[3]; HT-29 cells, read-out: IC50 (μM), cytotoxicity",> 100 µM
same,Body weight recovery rate (%),TNBS-induced colitis,25.0%
same,Bowel weight recovery rate (%),TNBS-induced colitis,50.3%
